# Patent US20230364119A1, “AUTOPHAGY ACTIVATOR” (Resonac Corporation, priority 2020, published 2023)
# Tests used:
# Format in all cases: cell-based
# ATG5 gene = ATG5 gene expression promoting effect in human senescent fibroblasts (quantitative real-time PCR)
# Description: (§1) Senescent fibroblasts were prepared by the following procedure.
# (§2) Normal human fibroblasts (NB1RGB, RIKEN BRC Cell Bank) were cultured until confluent in D-MEM medium (manufactured by Sigma-Aldrich) to which 10% fetal bovine serum (manufactured by MP Biomedicals) was added. Thereafter, the cells were treated with 250 μM aqueous hydrogen peroxide for 2 hours, and cultured for 24 hours in D-MEM medium to which fresh 10% fetal bovine serum was added. The treatment with aqueous hydrogen peroxide and the cell culture operation were repeated three times, and the obtained fibroblasts were used as senescent fibroblasts.
# (§3) The prepared senescent fibroblasts were prepared at a seeding density of 10000 cells/cm^2 and cultured for 24 hours in D-MEM medium (manufactured by Sigma-Aldrich) to which 10% fetal bovine serum (manufactured by MP Biomedicals) was added. […]
# (§4) Then, using Nucleospin (registered trademark) RNA kit (manufactured by Takara Bio Inc.), RNA was extracted from senescent fibroblasts or normal human fibroblasts in each example, and cDNA was synthesized from the obtained RNA. Next, using this cDNA as a template, by quantitative real-time PCR, the expression level of each gene was quantified using primers (manufactured by Takara Bio Inc.) specific to the LC3 gene, ATG5 gene, and Beclin 1 gene, respectively. […]
# Beclin 1 gene [1] = assay: Beclin 1 gene expression promoting effect in human senescent fibroblasts (quantitative real-time PCR)
# Description: as §1, §2, §3, §4
# Beclin 1 gene [2] = assay: Beclin 1 gene expression promoting effect in human neuroblastoma in the presence of amyloid β
# Description: In the presence of an autophagy activator, the expression levels of the LC3 gene, ATG5 gene, and Beclin 1 gene in human neuroblastoma (SH-SY5Y; obtained from ATCC) were measured by the following test method, and the effect of promoting the expression of the LC3 gene, ATG5 gene, and Beclin 1 gene by an autophagy activator was evaluated.
# In the following examples and comparative examples, tests were performed by adding amyloid β, which is known to cause a decrease in autophagy in nerve cells, to each medium.
# SH-SY5Y cells were prepared at a seeding density of 10000 cells/cm^2 and cultured for 24 hours in D-MEM medium/Ham's F-12 medium (manufactured by Sigma-Aldrich) to which 10% fetal bovine serum (manufactured by MP Biomedicals) was added. Next, in Example 15, the inositol derivative A dissolved in purified water was added to the medium such that the final concentration of the inositol derivative A was 10-4% (V/V). […]
# Then, using Nucleospin (registered trademark) RNA kit (manufactured by Takara Bio Inc.), RNA was extracted from SH-SY5Y cells in each example, and cDNA was synthesized from the obtained RNA. Next, using this cDNA as a template, by quantitative real-time PCR, the expression level of each gene was quantified using primers (manufactured by Takara Bio Inc.) specific to the LC3 gene, ATG5 gene, and Beclin 1 gene, respectively. […]
# [3] = 24 hours, 10^−3% (V/V) inositol or inositol derivative A, with the vitamin derivative of the example where added, GAPDH-standardized, Comparative Example 1 (purified water) = 1.00
# [4] = compared to Comparative Example 1 (purified water only)
compound,measurement,setting,value
"O[C@H]1[C@H](O)[C@@H](O)[C@H](O)[C@@H](O)[C@H]1O [Comparative Example 2, myo-inositol]",Relative gene expression level ATG5,ATG5 gene; [3],1.21
same,"expression level of the ATG5 gene, in words",ATG5 gene; [4],more increased
same,Relative gene expression level Beclin 1,Beclin 1 gene [1]; [3],1.30
same,"expression level of the Beclin 1 gene, in words",Beclin 1 gene [1]; [4],more increased
same,"expression level of the Beclin 1 gene, in words","Beclin 1 gene [2]; SH-SY5Y cells with amyloid β, compared to Reference Example 3 (purified water only, no amyloid β)",slightly increased
same,Relative gene expression level Beclin 1,"Beclin 1 gene [2]; SH-SY5Y cells, 20 μM amyloid β present, 48 hours, 10^−3% (V/V) inositol or inositol derivative A, with the vitamin derivative of the example where added, Reference Example 3 (purified water, no amyloid β) = 1.00",1.31
